Data as given in PubChem BioAssay (NCI).
Several values for one entry are separate records, joined by “and”; a condition that tells them apart may be missing. Identical values can stand only once.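 Protocol summary: plate cells (96-well), add compound at 5 concentrations, incubate 48 h, interpolate endpoints linearly. At the GI50, growth is halved. TGI denotes the concentration required for complete inhibition of growth.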

Key:
Test in all cases: DTP human tumour cell line panel, 48 h
SK-MEL-5 melanoma = tested on: SK-MEL-5 melanoma
A549 NSCLC = tested on: A549 NSCLC
TK-10 renal = tested on: TK-10 renal
NCI-H522 lung = tested on: NCI-H522 lung
ACHN renal = tested on: ACHN renal
SF-539 CNS = tested on: SF-539 CNS
HOP-92 NSCLC = tested on: HOP-92 NSCLC
RXF 393 renal = tested on: RXF 393 renal
PC-3 prostate = tested on: PC-3 prostate
OVCAR-8 ovarian = tested on: OVCAR-8 ovarian

SMILES	GI50 (SK-MEL-5 melanoma)	TGI (SK-MEL-5 melanoma)	GI50 (A549 NSCLC)	TGI (A549 NSCLC)	GI50 (TK-10 renal)	TGI (TK-10 renal)	GI50 (NCI-H522 lung)	TGI (NCI-H522 lung)	GI50 (ACHN renal)	TGI (ACHN renal)	GI50 (SF-539 CNS)	TGI (SF-539 CNS)	GI50 (HOP-92 NSCLC)	TGI (HOP-92 NSCLC)	GI50 (RXF 393 renal)	TGI (RXF 393 renal)	GI50 (PC-3 prostate)	TGI (PC-3 prostate)	GI50 (OVCAR-8 ovarian)	TGI (OVCAR-8 ovarian)
COc1ccc(-c2c(C#N)c(N3CCOCC3)nc3[nH]c(=S)[nH]c(=S)c23)cc1OC	27.5 µM	> 100 µM	> 100 µM	> 100 µM	34.5 µM	> 100 µM	> 100 µM	> 100 µM	35.8 µM	> 100 µM	39.1 µM	> 100 µM	48.2 µM	> 100 µM	62.6 µM	> 100 µM	40.3 µM	> 100 µM	34.5 µM	> 100 µM
CCCCNCCCNCCCNC(=O)c1csc(-c2csc(CCNC(=O)C(NC(=O)C(C)C(O)C(C)NC(=O)C(NC(=O)c3nc(C(CC(N)=O)NCC(N)C(N)=O)nc(N)c3C)C(OC3OC(CO)C(O)C(O)C3OC3OC(CO)C(O)C(OC(N)=O)C3O)c3cnc[nH]3)C(C)O)n2)n1 (configuration not stated)	3.14 µM	50 µM and 11.6 µM	1.13 µM	10.3 µM and 22.9 µM	> 50 µM	> 50 µM and 58.2 µM	–	7.96 µM and 10.1 µM	0.0491 µM	–	0.0449 µM	0.357 µM and 0.235 µM	–	1.79 µM	0.443 µM and 0.171 µM	2.66 µM and 1.15 µM	–	50 µM	0.908 µM	12.1 µM and 40.4 µM
O=c1[nH]c(O)c(C=Nc2ccc(-c3nc4ccccc4o3)cc2)c(=O)[nH]1	44.8 µM	> 100 µM	74.9 µM	> 100 µM	40.6 µM	> 100 µM	30.9 µM	> 100 µM	> 100 µM	> 100 µM	27.4 µM	62.7 µM	> 100 µM	> 100 µM	89 µM	> 100 µM	> 100 µM	> 100 µM	25.8 µM	> 100 µM
COc1c2occc2c(N)c2ccc(=O)oc12	–	> 100 µM	–	> 100 µM	–	> 100 µM	–	> 100 µM	–	> 100 µM	–	> 100 µM	–	> 100 µM	–	> 100 µM	–	> 100 µM	–	> 100 µM
COc1ccc(-c2cc(=O)oc3c4c(ccc23)OCN(Cc2ccc(F)cc2)C4)cc1	12.7 µM	25.4 µM	25.6 µM	> 100 µM	16.1 µM	49.3 µM	16.6 µM	33.6 µM	19.4 µM	65 µM	15.8 µM	32.5 µM	10 µM	24.2 µM	13 µM	29.2 µM	15.8 µM	44.1 µM	17.2 µM	37.7 µM
Cc1cccc(NC2=C(Cl)C(=O)c3nc(C)ccc3C2=O)c1	1.66 µM	3.03 µM	2.18 µM	6.11 µM	2.58 µM	4.17 µM	1.81 µM	4.88 µM	1.24 µM	2.53 µM	1.39 µM	2.75 µM	1.66 µM	3.27 µM	1.46 µM	2.84 µM	1.29 µM	4.8 µM	–	–
NC(=S)N/N=C/c1ncccc1O	2.04 µM and 1.26 µM	35.5 µM and 67.2 µM	3.39 µM	> 59.4 µM and 31.3 µM	11.2 µM	292 µM	2.44 µM and 1.29 µM	> 42.9 µM and 87 µM	0.202 µM	8.54 µM and 1.38 µM	0.567 µM and 0.242 µM	2.69 µM and 1.26 µM	6.55 µM	31.2 µM and 90.7 µM	–	7.82 µM and 42.6 µM	0.895 µM	> 1000 µM	2.58 µM and 0.813 µM	> 72.2 µM and 135 µM
CCn1cc(-c2ccnc3[nH]c(-c4cccc(CN(C)C)c4)cc23)c(-c2ccc(NC(=O)N(C)C)cc2)n1	6.55 µM	23.6 µM	0.238 µM and 0.747 µM	16.1 µM and > 10 µM	6.77 µM and 1.67 µM	26 µM and > 10 µM	–	20 µM and > 10 µM	1.73 µM and 2.45 µM	10.2 µM and > 10 µM	0.418 µM and 1.38 µM	13.3 µM and > 10 µM	0.338 µM and 0.294 µM	5.2 µM and 2.99 µM	0.356 µM and 1.18 µM	5.54 µM and > 10 µM	1.46 µM and 3.02 µM	27 µM and > 10 µM	3.33 µM and 3.61 µM	23 µM and > 10 µM
CCCCCCCCSC1=C(Cl)C(=O)C(OC)=C(OC)C1=O	–	18.6 µM	–	48.4 µM	–	28.5 µM	–	14.4 µM	–	23 µM	–	32.7 µM	–	35.1 µM	–	30.3 µM	–	31.9 µM	–	30.9 µM
O=C(Nc1nc(-c2c[nH]c3ccccc23)cs1)c1n[nH]c(=O)c2ccccc12	1.44 µM	> 100 µM	1.57 µM	83.6 µM	14.4 µM	> 100 µM	3.26 µM	> 58.2 µM	8.98 µM	> 69.1 µM	1.68 µM	> 57.6 µM	> 30.6 µM	> 100 µM	0.446 µM	20.7 µM	10.2 µM	> 100 µM	2.26 µM	> 67.6 µM
COc1nc(=O)n(C2C=CC(=O)O2)cc1F (configuration not stated)	4.91 µM	18.6 µM	25.9 µM	87.3 µM	2.64 µM	12.2 µM	2.33 µM	8.72 µM	2.11 µM	5.45 µM	2.22 µM	5.77 µM	1.85 µM	11.7 µM	1.94 µM	5.03 µM	19.8 µM	62.4 µM	23.9 µM	> 100 µM
COC(=O)C1=CN(CC2=CC(=O)C(C)=CC2=O)C=C(C(=O)OC)C1c1ccccc1OC	14.2 µM	30.4 µM	29.3 µM	> 59.4 µM	16.7 µM	35.4 µM	23.7 µM	> 64.6 µM	14.8 µM	30.6 µM	21.2 µM	60.3 µM	9.31 µM	21.9 µM	16.2 µM	32.3 µM	14.9 µM	29.8 µM	17.6 µM	38.9 µM
CN(Cc1cnc2nc(N)nc(N)c2n1)c1ccc(C(=O)N[C@@H](CCS(=O)(=O)O)C(=O)O)cc1	–	> 100 µM	–	> 100 µM	–	> 100 µM	–	> 100 µM	–	> 100 µM	–	> 100 µM	–	> 100 µM	–	1.44 µM	–	> 100 µM	–	> 55.3 µM
COc1cc2c(cc1OCCCN1CCN(CCCOc3cc4c(cc3OC)C(=O)N3CC(F)(F)C[C@H]3C=N4)CC1)N=C[C@@H]1CC(F)(F)CN1C2=O	1.86 µM	4.16 µM	7.32 µM	43 µM	4.38 µM	12.9 µM	1.14 µM	3.86 µM	5.64 µM	19.7 µM	3.05 µM	9.15 µM	6.14 µM	76.3 µM	2.14 µM	4.52 µM	3.06 µM	9.74 µM	6.3 µM	26.7 µM
Cc1nc2sccn2c1-c1nc2sccn2c1/C=C1/C(=O)Nc2ccccc21	2.94 µM	12.5 µM	3.95 µM	> 100 µM	13.5 µM	> 100 µM	2.72 µM	11.1 µM	7.72 µM	> 100 µM	3.72 µM	15.6 µM	1.4 µM	10.2 µM	–	–	2.32 µM	46.4 µM	11.4 µM	> 100 µM
NNc1ncnc2nc[nH]c12	6.05 µM	36.4 µM	4.94 µM	> 38.6 µM	2.94 µM	> 100 µM	1.83 µM	> 100 µM	4.78 µM	> 94 µM	21.2 µM	> 100 µM	4 µM	55.4 µM	7.16 µM	> 100 µM	6.07 µM	> 100 µM	5.09 µM	> 100 µM
CC(C)=CCC1=C(O)c2ccccc2C(=O)C1=O	11.2 µM	27 µM and 28 µM	> 100 µM and 17.3 µM and 16.6 µM	> 100 µM	> 100 µM and 37.8 µM and 87.1 µM	> 100 µM	> 100 µM and 19.7 µM and 20.6 µM	> 100 µM	–	> 100 µM	–	> 100 µM	–	> 100 µM	> 100 µM	> 100 µM	–	> 100 µM	> 100 µM and 26.7 µM and 20.8 µM	> 100 µM
O=c1[nH]c(-c2cccc(F)c2)cc2cc(F)ccc12	0.334 µM	> 100 µM	0.798 µM	> 100 µM	> 50 µM	> 100 µM	0.334 µM	> 100 µM	0.771 µM	> 100 µM	0.272 µM	1.7 µM	> 100 µM	> 100 µM	0.358 µM	–	0.391 µM	> 100 µM	0.951 µM	> 100 µM
CNc1cc2oc(=O)cc(C)c2cc1C	–	> 100 µM	–	> 100 µM	–	> 100 µM	–	> 100 µM	–	> 100 µM	–	> 100 µM	–	> 100 µM	–	> 100 µM	–	> 100 µM	–	> 100 µM
C=C(C)C(C1C=C(CCC(C=O)=C(C)C)C(=O)O1)C1(OC)C=C(C)C(=O)O1 (configuration not stated)	71.4 µM	> 100 µM	> 100 µM	> 100 µM	> 100 µM	> 100 µM	> 100 µM	> 100 µM	> 100 µM	> 100 µM	> 100 µM	> 100 µM	> 100 µM	> 100 µM	–	–	> 100 µM	> 100 µM	> 100 µM	> 100 µM
COC(=O)c1c(C)cc(OC)c(C/C=C(\C)CCCc2coc(C=C(C)C)c2)c1OC	–	> 100 µM	–	> 100 µM	–	> 100 µM	–	> 100 µM	–	> 100 µM	–	> 100 µM	–	> 100 µM	–	–	–	> 100 µM	–	> 100 µM
